Reference: US20250388867A1, “COMPOSITION AND METHOD FOR CULTURING ORGANOIDS” (ORGANOIDSCIENCES, LTD., priority 2017, published 2025)

Tests used:
[1] = test system: small intestinal organoids; test: Budding characteristics analysis (counts of budding and non-budding organoids); assay type: cell-based, mouse; settings: 4 days
Text: The morphological characteristic of the small intestinal organoids is that they grow while budding. In order to check that the budding rate of the small intestinal organoids grown in the RS-246204-added culture solution (hereinafter, RS-246204 culture solution) is similar to that grown in ENR culture solution, the total number of organoids, the number of budding organoids, and the number of non-budding organoids were counted in the wells culturing for 4 days. The rate of budding organoids and non-budding organoids grown in the culture solution containing 50 μM of RS-246204 is about 1:1, which is similar to the rate of organoids grown in the ENR culture solution (see FIG. 2C).

[2] = test system: small intestinal organoids; test: Subculture of small intestinal organoids; assay type: cell-based, mouse; settings: RS-246204 culture solution
salivary organoids = test: Formation of organoids (Example 8), salivary; assay type: cell-based, mouse
Text: (§1) Large intestinal tissue, adenoid tissue, and pancreatic cancer tissue were isolated from a patient during surgery and used in experiments for preparing and culturing organoids. Salivary tissue was isolated from a mouse and used in experiments for preparing and culturing organoids.
(§2) Each of the tissues was cut longitudinally from a proximal end to a distal end, and also laterally cut into pieces of about 5 mm length. The piece of the tissues obtained was washed with ice-cooled Dulbecco's phosphate-buffered saline (DPBS) until the supernatant liquid was sufficiently clear. Then, the tissues were isolated by treating with a Gentle Cell Dissociation Reagent (StemCell Technologies, Cambridge, MA), and filtering with a cell strainer. The isolated tissues were mixed in collagen gel, and placed in each well of a well plate. After keeping in 37° C. humidification incubator (5% CO2), the cultured organoids were observed, and optical microscope photos were taken for analysis.

[3] = test system: small intestinal organoids; test: Organoid circumference by date (growth efficiency); assay type: cell-based, mouse; settings: RS-246204 culture solution vs ENR culture solution, photographed every day
Experimental: In order to check whether the growth efficiency of the small intestinal organoids grown in the RS-246204 culture solution has a difference, the small intestinal organoids cultured in each culture solution were photographed by an optical microscope every day. The circumference of the individual organoid according to the condition of culture medium and date was measured, and converted into percentage.

[4] = test system: small intestinal organoids; test: CFTR agonist Forskolin analysis (function maintenance); assay type: cell-based, mouse; settings: 4 days culture, then forskolin 5 μM, 1 hour
Experimental: In order to check whether functions of small intestinal epithelial cells are maintained in the small intestinal organoids cultured using the RS-246204 culture solution, CFTR agonist Forskolin analysis was performed. The forskolin is a compound which stimulates ion channels to open, thereby promoting the release of moisture. In case of small intestinal organoids, moisture gathers into the lumen by the forskolin stimulation and changes into a large spherical shape, thereby confirming the maintenance of the function of epithelial cells. After culturing for 4 days in RS-246204 culture solution and ENR culture solution, respectively, it was replaced with a culture solution to which forskolin was added at a concentration of 5 μM. Photographs were taken by an optical microscope at an interval of 10 minutes for 1 hour immediately after the replacement. Based on the optical micrographs, the free curve tool of Dixi eXcope (Korea) program was used to measure the circumference of each organoid per hour and analyze the change in circumference.

[5] = test system: human large intestinal organoids; test: Formation of large intestinal organoids, RS-246204 concentration series (Example 7); assay type: cell-based
Text: (§3) Large intestinal tissue was isolated from a human patient during surgery and used in experiments for forming organoids. The tissue was cut longitudinally from a proximal end to a distal end, and also laterally cut into pieces of about 5 mm length. The tissue pieces, which were isolated crypts, were washed with ice-cooled Dulbecco's phosphate-buffered saline (DPBS) until the supernatant liquid was sufficiently clear. Then, the crypts were isolated by treating with a Gentle Cell Dissociation Reagent (StemCell Technologies, Cambridge, MA), and filtering with a cell strainer. The crypts were mixed in collagen gel, and placed in each well of a well plate with the composition comprising the compound of the chemical formula 1 (namely, RS-246204). After keeping in a 37° C. humidification incubator (5% CO2) for 5 days, the formed organoids were observed, optical microscope photos were taken for analysis, and organoid counts were analyzed using Leopard iX software.
(§4) The control and experimental groups were classified as follows depending on the components of the medium composition used.
• RS 0 μM group: Basal media (Advanced DMEM/F12 media) not supplemented with RS-246204 (also referred to as “RS”) was used to form human large intestinal organoids. • RS 2.5 μM group: Basal media (Advanced DMEM/F12 media) supplemented with RS-246204 2.5 μM was used to form human large intestinal organoids.
• RS 5 μM group: Basal media (Advanced DMEM/F12 media) supplemented with RS-246204 5[…] μM was used to form human large intestinal organoids. • RS 50 μM group: Basal media (Advanced DMEM/F12 media) supplemented with RS-246204 50 μM was used to form human large intestinal organoids. • RS 100 μM group: Basal media (Advanced DMEM/F12 media) supplemented with RS-246204 100 μM was used to form human large intestinal organoids.

[6] = test system: human large intestinal organoids; test: Formation of large intestinal organoids (Example 6); assay type: cell-based; settings: for organoid formation: 5 days
Text: as §3, with “in” for “in a”, “observed, and” for “observed,”, “analysis.” for “analysis, and organoid counts were analyzed using Leopard iX software.”
as §4
• ENR group: Basal media supplemented with EGF (E), Noggin (N) and R-spondin (R) was used to form human large intestinal organoids. • EN+RS-246204 group: Basal media supplemented with EGF (E), Noggin (N) and RS-246204 (25 or 50 μM) was used to form human large intestinal organoids.
• RS-246204 group: Basal media supplemented with RS-246204 (25 or 50 μM) was used to form human large intestinal organoids.
Noggin, thiazovivin, CHIR99021, and a pharmaceutically acceptable salt of CHIR99021 was not used in both the control and experimental groups.

[7] = test system: large intestinal organoids; test: Formation of organoids (Example 8), large intestinal; assay type: cell-based, human
Text: as §1, §2

[8] = test system: pancreatic cancer organoids; test: Formation of organoids (Example 8), pancreatic cancer; assay type: cell-based, human
Text: as §1, §2

adenoid organoids = test: Formation of organoids (Example 8), adenoid; assay type: cell-based, human; settings: 1 μM
Text: as §1, §2

[9] = test system: small intestinal organoids; test: Screening of compound library using organoid proliferation measurement; assay type: cell-based, mouse; settings: 50 μM in EN culture solution, 4 days
Text: Small intestinal crypts were isolated from a mouse to be used in experiments for preparing and culturing small intestinal organoids. Specifically, the small intestine was isolated after killing a 5-7 weeks old C57BL/6 mouse weighing 20-25 g by cervical vertebrae dislocation. The small intestine was cut longitudinally from a proximal end to a distal end, and also laterally cut into pieces of about 5 mm length. The piece of small intestine obtained was washed with ice-cooled Dulbecco's phosphate-buffered saline (DPBS) until the supernatant liquid was sufficiently clear. Then, the crypts were isolated by treating with a Gentle Cell Dissociation Reagent (StemCell Technologies, Cambridge, MA), and filtering with a cell strainer.
Compounds which can replace R-spondin in organoid cultures were screened for 8,364 types of compounds included in a representative library of the Korea Chemical Bank.
The small intestinal crypts derived from the small intestine of a 7-week-old C57BL/6 mouse isolated in Example 1 were mixed in Matrigel, and placed in each well of a 96-well plate. […]
The number of living organoids, the number of budding organoids, and the circumference of each organoid were measured using the optical microscope photos. […] The compounds were ranked based on the measured values, and then 295 candidate compounds were selected to be used in a second screening. […]

[10] = test system: small intestinal organoids; test: Immunofluorescence analysis; assay type: cell-based, mouse; settings: organoids cultured in ENR and RS-246204 culture solutions
[11] = test system: small intestinal organoids; test: RT-PCR and qRT-PCR analysis of lineage markers; assay type: cell-based, mouse
Experimental: In order to confirm whether lineage markers specific to the small intestinal organoids are expressed when cultured with RS-246204, RNA analysis was performed. The small intestinal organoids cultured in ENR and RS-246204 culture solutions, respectively, for 4 days were collected. RNA was extracted and cDNA was synthesized, and then RT-PCR was performed. As a marker for intestinal stem cells, goblet cells, paneth cells, enteroendocrine cells and enterocyte, RT-PCR was performed using RNA primers for Lgr5, muc-1 and muc-2, defesing-5, chromogranin A (ChgA), and villin, respectively.
For quantitative analysis, qRT-PCR analysis was performed. AccuPower 2X Greenstar qPCR MasterMix (Bioneer) and Thermal Cycler Dice® Real Time System III (Takara, Japan) were used, and the reaction was performed for 10 seconds at 95° C. (denaturation), 15 seconds at 57° C. (annealing), and 20 seconds at 72° C. (extension). The RNA primers excluded Muc1 among those used in the RT-PCR test, changed the enterocyte marker from villin to Intestinal Alkaline Phosphatase (IAP), and used the same sequence for the rest.

## Cn1c(Sc2ccc3ccccc3n2)nc2c1c(=O)[nH]c(=O)n2C [RS-246204]
[1]; concentration higher than 50 μM
  killing of organoids: most organoids were killed
[1]; concentration lower than 50 μM
  rate of non-budding organoids: increased
[2]
  growth and maintenance after the subculture: growth and maintenance were also possible even after the subculture
[2]; same manner as ENR culture solution
  possibility to subculture: possible to subculture
Salivary organoids
  growth after subculturing: can grow even after subculturing
Salivary organoids; 1.25 μM, 2.5 μM or 5 μM
  dose dependence of formation and proliferation: form and proliferate in a dose-dependent manner
Salivary organoids; 1.25 μM, 2.5 μM or 5 μM RS-246204
  formation and proliferation effects: excellent formation and proliferation effects
[3]
  growth efficiency and increase rate of the circumference according to date: similarly observed
[4]
  function of epithelial cells after forskolin stimulation: performed well as epithelial cells
[5]; RS 2.5 μM compared with RS 0 μM group
  quantity of organoid calculated from the confluency: no significant difference
[5]; RS 2.5 μM in Advanced DMEM/F12, 5 days
  organoid formation: human intestinal organoids were formed
[5]; RS-246204 5, 50 or 100 μM in Advanced DMEM/F12, 5 days
  organoid formation: human intestinal organoids were formed
[6]; EN+RS-246204 group: basal media with EGF, Noggin and RS-246204 (25 or 50 μM)
  organoid formation: human intestinal organoids were formed
[6]; RS-246204 group (25 or 50 μM) compared with ENR or EN+RS-246204 groups
  quantity of organoid calculated from the confluency: no significant difference
[6]; RS-246204 group: basal media supplemented with RS-246204 only (25 or 50 μM)
  organoid formation: human intestinal organoids were formed
[7]
  budding (crypt) formation: grow while forming budding (crypt)
  growth after subculturing: can grow even after subculturing
[7]; 20 μM RS-246204
  formation and proliferation effects: excellent formation and proliferation effects
[8]
  growth after subculturing: can grow even after subculturing
[8]; 30 μM RS-246204
  formation and proliferation effects: excellent formation and proliferation effects
Adenoid organoids; 2 μM or 5 μM
  dose dependence of formation and proliferation: form and proliferate in a dose-dependent manner
Adenoid organoids; 2 μM or 5 μM RS-246204
  formation and proliferation effects: excellent formation and proliferation effects
[9]; among the final seven candidate compounds
  growth of small intestinal organoids: highest growth of small intestinal organoids among the candidate materials
[9]; numerical data and visual confirmation
  growth and maintenance of organoids compared with R-spondin: could grow and maintain organoids most similar to R-spondin
[10]
  expression of Muc-2, lysozyme and Ki67 (immunofluorescence staining): confirm the expression of Muc-2, lysozyme, and Ki67
[11]; 4 days culture, Lgr5, muc-1, muc-2, defesing-5, ChgA, villin
  presence of intestinal stem cells, goblet cells, paneth cells, enteroendocrine cells and enterocyte (RT-PCR markers): all these cells were present
[11]; ENR vs RS-246204 culture solutions
  relative amount of markers expressed (qRT-PCR): little difference between the ENR and RS-246204 culture solutions
